Read-outs that look alike come from different tables or passages of the source.
Experiments:
[1] = biological target: T1, AEA-DA lipid probe targets in Neuro2a cells (Mus musculus, UniProt P01897)
T1 sequence (P01897 25-362): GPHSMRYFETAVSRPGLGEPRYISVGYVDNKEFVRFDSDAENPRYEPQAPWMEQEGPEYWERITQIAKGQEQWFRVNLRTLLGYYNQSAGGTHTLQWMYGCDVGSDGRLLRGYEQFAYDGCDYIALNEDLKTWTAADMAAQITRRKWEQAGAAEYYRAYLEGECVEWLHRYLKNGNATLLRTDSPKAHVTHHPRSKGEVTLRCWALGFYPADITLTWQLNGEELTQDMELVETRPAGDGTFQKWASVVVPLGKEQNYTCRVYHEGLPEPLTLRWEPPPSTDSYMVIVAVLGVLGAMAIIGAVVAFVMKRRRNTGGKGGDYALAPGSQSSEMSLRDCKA

[2] = biological target: T2, AEA-DA lipid probe targets in Neuro2a cells (Mus musculus, UniProt Q0VGU4)
T2 sequence (Q0VGU4 24-617): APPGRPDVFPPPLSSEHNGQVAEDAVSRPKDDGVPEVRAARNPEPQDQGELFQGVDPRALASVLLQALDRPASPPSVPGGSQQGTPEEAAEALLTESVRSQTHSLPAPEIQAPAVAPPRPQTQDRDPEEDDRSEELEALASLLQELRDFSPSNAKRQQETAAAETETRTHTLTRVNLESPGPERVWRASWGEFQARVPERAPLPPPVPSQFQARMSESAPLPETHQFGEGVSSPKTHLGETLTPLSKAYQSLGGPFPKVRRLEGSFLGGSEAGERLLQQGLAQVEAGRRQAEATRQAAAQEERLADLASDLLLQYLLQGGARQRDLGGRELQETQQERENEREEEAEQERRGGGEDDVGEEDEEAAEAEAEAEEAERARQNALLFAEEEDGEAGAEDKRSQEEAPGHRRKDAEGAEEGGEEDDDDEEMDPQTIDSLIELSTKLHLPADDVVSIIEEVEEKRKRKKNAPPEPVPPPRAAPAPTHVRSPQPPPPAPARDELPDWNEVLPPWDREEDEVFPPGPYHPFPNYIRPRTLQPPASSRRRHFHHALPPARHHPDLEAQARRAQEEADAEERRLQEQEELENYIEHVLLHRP

[3] = biological target: T3, AEA-DA lipid probe targets in Neuro2a cells (Mus musculus, UniProt P46638)
T3 sequence (P46638 1-218): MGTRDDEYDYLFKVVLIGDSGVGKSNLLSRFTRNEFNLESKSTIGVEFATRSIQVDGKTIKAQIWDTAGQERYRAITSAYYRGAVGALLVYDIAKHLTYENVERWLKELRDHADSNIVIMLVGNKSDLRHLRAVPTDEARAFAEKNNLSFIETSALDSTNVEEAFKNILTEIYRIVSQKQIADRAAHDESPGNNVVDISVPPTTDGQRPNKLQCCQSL

[4] = biological target: T4, AEA-DA lipid probe targets in Neuro2a cells (Mus musculus, UniProt Q99LR1)
T4 sequence (Q99LR1 1-398): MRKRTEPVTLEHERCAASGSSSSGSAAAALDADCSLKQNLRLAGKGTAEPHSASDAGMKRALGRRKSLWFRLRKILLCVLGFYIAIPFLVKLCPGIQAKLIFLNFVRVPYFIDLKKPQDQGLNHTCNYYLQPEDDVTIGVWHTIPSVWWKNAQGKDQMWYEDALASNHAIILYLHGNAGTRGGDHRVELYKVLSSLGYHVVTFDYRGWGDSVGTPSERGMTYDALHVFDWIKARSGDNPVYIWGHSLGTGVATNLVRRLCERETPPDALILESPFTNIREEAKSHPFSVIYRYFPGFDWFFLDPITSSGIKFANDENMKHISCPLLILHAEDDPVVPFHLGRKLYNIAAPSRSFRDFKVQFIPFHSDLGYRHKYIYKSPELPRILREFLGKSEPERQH

[5] = biological target: AEA-DA lipid probe targets in Neuro2a cells (Mus musculus, UniProt Q9D880)
Chain of AEA-DA lipid probe targets in Neuro2a cells (Mus musculus, UniProt Q9D880) (Q9D880 22-353): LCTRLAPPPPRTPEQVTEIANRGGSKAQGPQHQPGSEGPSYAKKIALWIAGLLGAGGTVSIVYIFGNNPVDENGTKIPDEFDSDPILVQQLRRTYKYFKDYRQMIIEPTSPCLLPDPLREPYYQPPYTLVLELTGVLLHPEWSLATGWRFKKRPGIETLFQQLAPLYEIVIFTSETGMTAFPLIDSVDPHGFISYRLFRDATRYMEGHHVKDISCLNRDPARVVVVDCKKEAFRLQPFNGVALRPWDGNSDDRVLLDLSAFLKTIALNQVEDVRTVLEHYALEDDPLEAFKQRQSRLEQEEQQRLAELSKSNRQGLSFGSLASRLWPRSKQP

[6] = biological target: T5, AEA-DA lipid probe targets in Neuro2a cells (Mus musculus, UniProt Q9R1J0); settings: for SILAC ratio, NSDHL (Q15738): Neuro2a cells, AEA-DA probe
T5 sequence (Q9R1J0 1-362): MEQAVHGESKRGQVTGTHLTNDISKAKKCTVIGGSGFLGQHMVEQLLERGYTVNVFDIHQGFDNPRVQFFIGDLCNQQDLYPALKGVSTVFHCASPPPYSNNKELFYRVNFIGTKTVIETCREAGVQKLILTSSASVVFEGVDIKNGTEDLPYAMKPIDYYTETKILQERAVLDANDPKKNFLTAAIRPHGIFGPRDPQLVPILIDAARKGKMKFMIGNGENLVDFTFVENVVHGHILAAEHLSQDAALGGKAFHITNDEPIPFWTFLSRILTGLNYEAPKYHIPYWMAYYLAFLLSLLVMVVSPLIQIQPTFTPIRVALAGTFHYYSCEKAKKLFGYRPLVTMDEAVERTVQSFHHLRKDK

[7] = biological target: AEA-DA lipid probe targets in Neuro2a cells (Mus musculus, UniProt Q9CYN2)
Chain of AEA-DA lipid probe targets in Neuro2a cells (Mus musculus, UniProt Q9CYN2) (Q9CYN2 whole entry): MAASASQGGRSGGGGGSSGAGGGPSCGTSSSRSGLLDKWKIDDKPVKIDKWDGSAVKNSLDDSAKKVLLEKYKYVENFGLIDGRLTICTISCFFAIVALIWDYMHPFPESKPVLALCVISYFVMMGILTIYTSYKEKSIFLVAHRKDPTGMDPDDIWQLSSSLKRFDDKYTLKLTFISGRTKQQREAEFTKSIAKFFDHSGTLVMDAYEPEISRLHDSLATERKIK

[8] = biological target: AEA-DA lipid probe targets in Neuro2a cells (Mus musculus, UniProt O89079)
Chain of AEA-DA lipid probe targets in Neuro2a cells (Mus musculus, UniProt O89079) (O89079 whole entry): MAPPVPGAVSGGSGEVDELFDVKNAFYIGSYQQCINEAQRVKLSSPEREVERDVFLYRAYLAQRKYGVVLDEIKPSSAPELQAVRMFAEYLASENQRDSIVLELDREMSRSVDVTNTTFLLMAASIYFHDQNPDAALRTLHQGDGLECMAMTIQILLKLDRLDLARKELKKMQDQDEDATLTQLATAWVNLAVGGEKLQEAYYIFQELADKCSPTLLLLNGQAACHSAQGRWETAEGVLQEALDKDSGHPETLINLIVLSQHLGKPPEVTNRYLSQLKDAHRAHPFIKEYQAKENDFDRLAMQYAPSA

[9] = biological target: T6, AEA-DA lipid probe targets in Neuro2a cells (Mus musculus, UniProt O88531)
T6 sequence (O88531 28-306): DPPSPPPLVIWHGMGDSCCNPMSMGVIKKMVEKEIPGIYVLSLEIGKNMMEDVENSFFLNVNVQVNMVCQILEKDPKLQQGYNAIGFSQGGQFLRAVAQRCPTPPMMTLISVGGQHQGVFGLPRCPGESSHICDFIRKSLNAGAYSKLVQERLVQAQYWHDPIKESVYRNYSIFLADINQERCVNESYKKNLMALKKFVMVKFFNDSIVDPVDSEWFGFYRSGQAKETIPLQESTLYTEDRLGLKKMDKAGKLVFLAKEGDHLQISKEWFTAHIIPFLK

## CCCCC/C=C\C/C=C\C/C=C\C/C=C\CCCC(=O)NCCO [AEA, anandamide, reference compound]
[1]; competitor 200 μM
  SILAC ratio H2-L: 1.3
[2]; competitor 200 μM
  SILAC ratio, Vgf: 1.0
[3]; competitor 200 μM
  SILAC ratio, Rab11b: 1.6
[4]; competitor 200 μM
  SILAC ratio, Abhd12: 1.8
[5]; competitor 200 μM
  SILAC ratio Timm50: 1.2
[6]; competitor 200 μM
  SILAC ratio, NSDHL (Q15738): 2.0
  SILAC ratio, Nsdhl: 2.0
[7]; competitor 200 μM
  SILAC ratio Spcs2: 1.7
[8]; competitor 200 μM
  SILAC ratio Cope: 0.9
[9]; competitor 200 μM
  SILAC ratio Ppt1: 1.1

## O=C(/C=C/c1cccnc1)NCCCCC1CCN(C(=O)c2ccccc2)CC1 [FK-866, reference compound]
[1]; competitor 25 μM
  SILAC ratio H2-L: 1.0
[2]; competitor 25 μM
  SILAC ratio, Vgf: 1.1
[3]; competitor 25 μM
  SILAC ratio, Rab11b: 1.2
[4]; competitor 25 μM
  SILAC ratio, Abhd12: 1.0
[5]; competitor 25 μM
  SILAC ratio Timm50: 1.1
[6]; competitor 25 μM
  SILAC ratio, NSDHL (Q15738): 1.3
  SILAC ratio, Nsdhl: 1.3
[7]; competitor 25 μM
  SILAC ratio Spcs2: 1.3
[8]; competitor 25 μM
  SILAC ratio Cope: 1.5
[9]; competitor 25 μM
  SILAC ratio Ppt1: 0.8

## CN1CCN(C(=O)c2c(-c3ccccc3)c3cc([N+](=O)[O-])ccc3n2C)CC1 [KML110, (1-Methyl-5-nitro-3-phenyl-1H-indol-2-yl)(4-methylpiperazin-1-yl)methanone]
[1]; competitor 25 μM
  SILAC ratio H2-L: 1.7
[2]; competitor 25 μM
  SILAC ratio, Vgf: 1.4
[3]; competitor 25 μM
  SILAC ratio, Rab11b: 1.5
[4]; competitor 25 μM
  SILAC ratio, Abhd12: 1.2
[5]; competitor 25 μM
  SILAC ratio Timm50: 1.1
[6]; competitor 25 μM
  SILAC ratio, Nsdhl: 1.7
[7]; competitor 25 μM
  SILAC ratio Spcs2: 1.6
[9]; competitor 25 μM
  SILAC ratio Ppt1: 1.2

## CN1CCN(C(=O)c2[nH]c3ccc([N+](=O)[O-])cc3c2-c2ccccc2)CC1 [MJN228, (4-Methylpiperazin-1-yl)(5-nitro-3-phenyl-1H-indol-2-yl)methanone]
[1]; competitor 10 μM
  SILAC ratio H2-L: 1.0
[1]; competitor 25 μM
  SILAC ratio H2-L: 1.1
[1]; competitor 50 μM
  SILAC ratio H2-L: 1.1
[1]; competitor 100 μM
  SILAC ratio H2-L: 1.0
[2]; competitor 10 μM
  SILAC ratio, Vgf: 1.3
[2]; competitor 25 μM
  SILAC ratio, Vgf: 1.3
[2]; competitor 50 μM
  SILAC ratio, Vgf: 1.1
[2]; competitor 100 μM
  SILAC ratio, Vgf: 1.0
[3]; competitor 10 μM
  SILAC ratio, Rab11b: 1.2
[3]; competitor 25 μM
  SILAC ratio, Rab11b: 1.6
[3]; competitor 50 μM
  SILAC ratio, Rab11b: 1.8
[3]; competitor 100 μM
  SILAC ratio, Rab11b: 2.4
[4]; competitor 10 μM
  SILAC ratio, Abhd12: 1.2
[4]; competitor 25 μM
  SILAC ratio, Abhd12: 1.2
[4]; competitor 50 μM
  SILAC ratio, Abhd12: 1.2
[4]; competitor 100 μM
  SILAC ratio, Abhd12: 1.4
[5]; competitor 10 μM
  SILAC ratio Timm50: 1.2
[5]; competitor 25 μM
  SILAC ratio Timm50: 1.3
[5]; competitor 50 μM
  SILAC ratio Timm50: 1.1
[5]; competitor 100 μM
  SILAC ratio Timm50: 1.2
[6]; competitor 25 μM
  SILAC ratio, NSDHL (Q15738): 2.3
  SILAC ratio, Nsdhl: 2.3
[6]; competitor 10 μM
  SILAC ratio, Nsdhl: 1.7
[6]; competitor 50 μM
  SILAC ratio, Nsdhl: 3.0
[6]; competitor 100 μM
  SILAC ratio, Nsdhl: 4.0
[7]; competitor 10 μM
  SILAC ratio Spcs2: 1.2
[7]; competitor 25 μM
  SILAC ratio Spcs2: 1.4
[7]; competitor 50 μM
  SILAC ratio Spcs2: 1.5
[7]; competitor 100 μM
  SILAC ratio Spcs2: 1.8
[8]; competitor 25 μM
  SILAC ratio Cope: 1.2
[9]; competitor 10 μM
  SILAC ratio Ppt1: 1.5
[9]; competitor 25 μM
  SILAC ratio Ppt1: 1.5
[9]; competitor 50 μM
  SILAC ratio Ppt1: 2.1
[9]; competitor 100 μM
  SILAC ratio Ppt1: 4.3

## C=CCN(C)CCCCCCOc1ccc(C(=O)c2ccc(Br)cc2)c(F)c1 [Ro 48-8071, reference compound]
[1]; competitor 25 μM
  SILAC ratio H2-L: 0.8
[2]; competitor 25 μM
  SILAC ratio, Vgf: 0.9
[3]; competitor 25 μM
  SILAC ratio, Rab11b: 1.3
[4]; competitor 25 μM
  SILAC ratio, Abhd12: 1.0
[5]; competitor 25 μM
  SILAC ratio Timm50: 0.9
[6]; competitor 25 μM
  SILAC ratio, NSDHL (Q15738): 1.3
  SILAC ratio, Nsdhl: 1.3
[7]; competitor 25 μM
  SILAC ratio Spcs2: 1.2
[8]; competitor 25 μM
  SILAC ratio Cope: 1.1
[9]; competitor 25 μM
  SILAC ratio Ppt1: 1.6

From US10168342B2, “Lipid probes and uses thereof” (THE SCRIPPS RESEARCH INSTITUTE, priority 2015, dated 2019)
